Legend:
EGFR WT = target: T1, EGFR WT (Homo sapiens, UniProt P00533); experiment: Time-dependent kinase inhibition assay (Sox-based substrate); assay type: biochemical
T1 construct: EGFR WT, cytoplasmic domain (669-1210), GST-tagged, Carna; purchased Carna 08-115
Experimental: (§1) Time-dependent Kinase Inhibition Assays. Biochemical assays were performed with commercially available EGFR WT, cytoplasmic domain (669-1210), GST-tagged, Carna (Cat #/Lot #: 08-115/21CBS-0127H), EGFR [T790M/L858R] and EGFR [L858R], cytoplasmic domain (669-1210), GST-tagged, Carna (Cat #/Lot #: 08-510/12CBS-0765M). […] BSA was not included in this experiment to prevent interference with irreversible inhibitor characterization via off-target binding. All reactions were run for 240 minutes at 30° C. Time-dependent fluorescence from the Sox-based substrate was monitored in PerkinElmer ProxiPlate-384 Plus, white shallow well microplates (Cat. #6008280) Biotek Synergy Neo 2 microplate reader with excitation (360 nm) and emission (485 nm) wavelengths. 2 was dosed between 0 and 10 μM in 24-point curves with 1.5-fold dilutions. Fluorescence, determined with identical reactions but lacking purified enzyme or crude cell lysate was subtracted from the total fluorescence signal for each time point, with both determined in duplicate, to obtain corrected relative fluorescence units (RFU). Corrected RFU values then were plotted vs. time and the reaction velocity for the first ~40 min (initial reaction rates) were determined from the slope using GraphPad Prism (La Jolla, CA) with units of RFU/min.

EGFR [T790M/L858R] = target: T2, EGFR [T790M/L858R] (Homo sapiens, UniProt P00533, L858R/T790M); experiment: as above; assay type: biochemical
T2 construct: EGFR [T790M/L858R] and EGFR [L858R], cytoplasmic domain (669-1210), GST-tagged, Carna; GST; purchased Carna 08-510
T2 sequence (P00533 669-1210 T790M/L858R): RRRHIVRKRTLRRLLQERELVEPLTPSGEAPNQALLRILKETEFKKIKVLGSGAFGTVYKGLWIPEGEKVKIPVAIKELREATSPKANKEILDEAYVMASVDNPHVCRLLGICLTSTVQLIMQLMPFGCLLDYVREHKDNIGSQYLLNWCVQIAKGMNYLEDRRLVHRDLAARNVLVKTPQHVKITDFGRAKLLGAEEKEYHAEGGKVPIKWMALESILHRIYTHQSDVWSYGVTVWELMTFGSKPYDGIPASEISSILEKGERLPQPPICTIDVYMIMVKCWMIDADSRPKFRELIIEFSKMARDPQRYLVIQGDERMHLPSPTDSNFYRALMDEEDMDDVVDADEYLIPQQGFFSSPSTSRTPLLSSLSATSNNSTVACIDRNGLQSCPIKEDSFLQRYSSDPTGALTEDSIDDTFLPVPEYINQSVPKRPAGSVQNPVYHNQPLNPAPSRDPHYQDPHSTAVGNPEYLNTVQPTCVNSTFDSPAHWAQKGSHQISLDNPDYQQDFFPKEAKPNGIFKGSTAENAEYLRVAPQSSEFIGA
Experimental: as §1

ACVRL1 = ACVRL1 (Homo sapiens, UniProt P37023); experiment: KINOMEscan; assay type: binding; details: 1 μM of compound 4; read-out: POC
BUB1 = BUB1 (Homo sapiens, UniProt O43683); experiment: KINOMEscan; assay type: binding; details: 1 μM of compound 4; read-out: POC
CDK5 = CDK5 (Homo sapiens, UniProt Q00535); experiment: KINOMEscan; assay type: binding; details: 1 μM of compound 4; read-out: POC
CLK4 = CLK4 (Homo sapiens, UniProt Q9HAZ1); experiment: KINOMEscan; assay type: binding; details: 1 μM of compound 4; read-out: POC
Sequence of CLK4 (Q9HAZ1 whole entry): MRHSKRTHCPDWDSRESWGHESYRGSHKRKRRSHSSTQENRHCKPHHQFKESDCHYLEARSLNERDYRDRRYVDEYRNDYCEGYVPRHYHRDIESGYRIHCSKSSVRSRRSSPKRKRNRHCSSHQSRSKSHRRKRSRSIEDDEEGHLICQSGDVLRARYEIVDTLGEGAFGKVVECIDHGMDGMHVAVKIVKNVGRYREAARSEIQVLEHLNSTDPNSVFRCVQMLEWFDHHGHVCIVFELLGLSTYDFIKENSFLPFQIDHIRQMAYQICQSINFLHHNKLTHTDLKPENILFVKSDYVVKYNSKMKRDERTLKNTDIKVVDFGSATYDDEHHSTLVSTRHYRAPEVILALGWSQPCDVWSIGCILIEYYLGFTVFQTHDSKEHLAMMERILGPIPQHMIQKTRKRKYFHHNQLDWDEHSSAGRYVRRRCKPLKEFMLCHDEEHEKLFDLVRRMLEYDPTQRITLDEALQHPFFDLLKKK

CSNK2A1 = CSNK2A1 (Homo sapiens, UniProt P68400); experiment: KINOMEscan; assay type: binding; details: 1 μM of compound 4; read-out: POC
Sequence of CSNK2A1 (P68400 whole entry): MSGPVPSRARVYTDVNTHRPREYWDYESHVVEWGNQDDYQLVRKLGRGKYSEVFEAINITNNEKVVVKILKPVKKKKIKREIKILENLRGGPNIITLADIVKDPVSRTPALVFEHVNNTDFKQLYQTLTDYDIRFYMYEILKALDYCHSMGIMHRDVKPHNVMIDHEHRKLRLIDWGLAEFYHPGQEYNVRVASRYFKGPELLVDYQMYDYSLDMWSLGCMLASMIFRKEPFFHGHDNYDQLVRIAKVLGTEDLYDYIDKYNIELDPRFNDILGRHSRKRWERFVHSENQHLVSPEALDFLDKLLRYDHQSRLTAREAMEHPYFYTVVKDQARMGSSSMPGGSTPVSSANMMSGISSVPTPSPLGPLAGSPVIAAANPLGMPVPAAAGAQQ

DMPK = DMPK (Homo sapiens, UniProt Q09013); experiment: KINOMEscan; assay type: binding; details: 1 μM of compound 4; read-out: POC
[1] = target: T3, EGFR(L747-S752del + P753S) (Homo sapiens, UniProt P00533, DEL747-752/P753S); experiment: KINOMEscan; assay type: binding; details: 1 μM of compound 4; read-out: POC
T3 construct: purchased Eurofins DiscoverX (KINOMEscan service)

EPHA8 = target: T4, EPHA8 (Homo sapiens, UniProt P29322); experiment: KINOMEscan; assay type: binding; details: 1 μM of compound 4; read-out: POC
T4 construct: purchased Eurofins DiscoverX (KINOMEscan service)

ERBB3 = target: T5, ERBB3 (Homo sapiens, UniProt P21860); experiment: KINOMEscan; assay type: binding; details: 1 μM of compound 4; read-out: POC
T5 construct: purchased Eurofins DiscoverX Corporation
T5 sequence (P21860 20-1342): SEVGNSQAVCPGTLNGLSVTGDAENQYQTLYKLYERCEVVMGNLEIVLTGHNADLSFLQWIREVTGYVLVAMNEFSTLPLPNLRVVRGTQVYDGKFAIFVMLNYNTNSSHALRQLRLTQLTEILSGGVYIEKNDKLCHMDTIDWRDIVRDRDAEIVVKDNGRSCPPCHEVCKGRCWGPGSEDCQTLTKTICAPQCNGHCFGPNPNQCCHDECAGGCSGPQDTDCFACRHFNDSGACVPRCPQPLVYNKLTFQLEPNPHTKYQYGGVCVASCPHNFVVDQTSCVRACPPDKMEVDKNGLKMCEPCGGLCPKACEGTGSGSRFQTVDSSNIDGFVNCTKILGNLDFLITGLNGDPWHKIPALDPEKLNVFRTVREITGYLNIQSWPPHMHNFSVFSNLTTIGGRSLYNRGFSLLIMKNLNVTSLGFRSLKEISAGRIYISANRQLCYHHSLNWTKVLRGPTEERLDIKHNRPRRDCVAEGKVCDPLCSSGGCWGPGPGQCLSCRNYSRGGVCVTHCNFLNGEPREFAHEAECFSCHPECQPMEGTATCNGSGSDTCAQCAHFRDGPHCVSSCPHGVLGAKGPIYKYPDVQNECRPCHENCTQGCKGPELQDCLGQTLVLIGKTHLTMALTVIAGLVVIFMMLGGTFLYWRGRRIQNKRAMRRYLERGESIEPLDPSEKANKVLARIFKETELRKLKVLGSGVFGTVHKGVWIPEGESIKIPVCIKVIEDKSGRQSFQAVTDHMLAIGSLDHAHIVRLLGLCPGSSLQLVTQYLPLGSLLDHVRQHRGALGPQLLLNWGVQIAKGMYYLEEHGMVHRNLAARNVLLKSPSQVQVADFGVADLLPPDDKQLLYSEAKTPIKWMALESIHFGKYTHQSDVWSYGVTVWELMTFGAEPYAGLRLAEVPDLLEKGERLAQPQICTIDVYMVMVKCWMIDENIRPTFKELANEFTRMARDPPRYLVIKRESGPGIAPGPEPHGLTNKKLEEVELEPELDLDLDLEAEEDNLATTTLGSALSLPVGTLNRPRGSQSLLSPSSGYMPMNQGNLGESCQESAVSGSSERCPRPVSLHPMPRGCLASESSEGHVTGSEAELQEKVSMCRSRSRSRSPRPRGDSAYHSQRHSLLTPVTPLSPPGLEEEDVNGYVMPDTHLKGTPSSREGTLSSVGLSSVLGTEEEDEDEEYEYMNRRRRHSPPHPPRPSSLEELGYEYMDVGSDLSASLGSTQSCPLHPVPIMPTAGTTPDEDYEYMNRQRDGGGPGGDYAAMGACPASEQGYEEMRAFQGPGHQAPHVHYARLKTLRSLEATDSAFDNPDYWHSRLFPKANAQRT

ERK3 = target: T6, ERK3 (Homo sapiens, UniProt Q16659); experiment: KINOMEscan; assay type: binding; details: 1 μM of compound 4; read-out: POC
T6 construct: purchased Eurofins DiscoverX Corporation

GRK3 = target: T7, GRK3 (Homo sapiens, UniProt P35626); experiment: KINOMEscan; assay type: binding; details: 1 μM of compound 4; read-out: POC
T7 construct: purchased Eurofins DiscoverX Corporation

KIT(D816H) = KIT(D816H) (Homo sapiens, UniProt P10721, D816H); experiment: KINOMEscan; assay type: binding; details: 1 μM of compound 4; read-out: POC
MINK = MINK (Homo sapiens, UniProt Q8N4C8); experiment: KINOMEscan; assay type: binding; details: 1 μM of compound 4; read-out: POC
NEK6 = NEK6 (Homo sapiens, UniProt Q9HC98); experiment: KINOMEscan; assay type: binding; details: 1 μM of compound 4; read-out: POC
Sequence of NEK6 (Q9HC98 whole entry): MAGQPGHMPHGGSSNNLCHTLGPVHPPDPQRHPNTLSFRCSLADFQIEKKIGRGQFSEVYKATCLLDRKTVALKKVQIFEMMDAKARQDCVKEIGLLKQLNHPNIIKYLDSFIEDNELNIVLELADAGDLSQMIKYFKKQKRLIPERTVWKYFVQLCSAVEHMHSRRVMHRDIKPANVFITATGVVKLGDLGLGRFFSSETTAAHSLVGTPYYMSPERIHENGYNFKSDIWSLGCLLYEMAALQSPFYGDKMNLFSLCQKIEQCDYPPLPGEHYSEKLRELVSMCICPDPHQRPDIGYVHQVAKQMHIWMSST

PAK3 = target: T8, PAK3 (Homo sapiens, UniProt O75914); experiment: KINOMEscan; assay type: binding; details: 1 μM of compound 4; read-out: POC
T8 construct: purchased Eurofins DiscoverX Corporation (KINOMEscan)
T8 sequence (O75914 whole entry): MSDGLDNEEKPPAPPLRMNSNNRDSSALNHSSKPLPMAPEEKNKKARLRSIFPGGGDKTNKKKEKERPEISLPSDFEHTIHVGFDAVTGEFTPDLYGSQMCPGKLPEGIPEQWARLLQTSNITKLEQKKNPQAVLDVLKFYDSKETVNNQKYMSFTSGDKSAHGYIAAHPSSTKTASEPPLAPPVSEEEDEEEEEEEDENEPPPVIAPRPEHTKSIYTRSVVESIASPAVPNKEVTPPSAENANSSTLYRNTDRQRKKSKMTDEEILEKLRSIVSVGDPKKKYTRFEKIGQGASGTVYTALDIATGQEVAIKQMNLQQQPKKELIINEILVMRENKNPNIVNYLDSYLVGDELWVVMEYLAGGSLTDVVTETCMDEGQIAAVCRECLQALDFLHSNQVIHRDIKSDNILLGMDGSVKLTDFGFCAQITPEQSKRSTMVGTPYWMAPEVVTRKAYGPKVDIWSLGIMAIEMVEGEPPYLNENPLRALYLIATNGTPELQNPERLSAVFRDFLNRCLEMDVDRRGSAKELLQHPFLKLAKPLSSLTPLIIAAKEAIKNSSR

PIK3CA(H1047Y) = PIK3CA(H1047Y) (Homo sapiens, UniProt P42336, H1047Y); experiment: KINOMEscan; assay type: binding; details: 1 μM of compound 4; read-out: POC
PKAC-alpha = PKAC-alpha (Homo sapiens, UniProt P17612); experiment: KINOMEscan; assay type: binding; details: 1 μM of compound 4; read-out: POC
PKNB(M. tuberculosis) = PKNB(M. tuberculosis) (Mycobacterium tuberculosis, UniProt P9WI81); experiment: KINOMEscan; assay type: binding; details: 1 μM of compound 4; read-out: POC
PRKD1 = PRKD1 (Homo sapiens, UniProt Q15139); experiment: KINOMEscan; assay type: binding; details: 1 μM of compound 4; read-out: POC
RET = target: T9, RET (Homo sapiens, UniProt P07949); experiment: KINOMEscan; assay type: binding; details: 1 μM of compound 4; read-out: POC
T9 construct: purchased Eurofins DiscoverX Corporation (KINOMEscan screening service)

RIOK2 = target: T10, RIOK2 (Homo sapiens, UniProt Q9BVS4); experiment: KINOMEscan; assay type: binding; details: 1 μM of compound 4; read-out: POC
T10 construct: purchased Eurofins DiscoverX Corporation (KINOMEscan screening service)

[2] = target: T11, RSK3(Kin.Dom.1-N-terminal) (Homo sapiens, UniProt Q15349); experiment: KINOMEscan; assay type: binding; details: 1 μM of compound 4; read-out: POC
T11 construct: RSK3(Kin.Dom.1-N-terminal); purchased Eurofins DiscoverX (KINOMEscan service)

SNRK = target: T12, SNRK (Homo sapiens, UniProt Q9NRH2); experiment: KINOMEscan; assay type: binding; details: 1 μM of compound 4; read-out: POC
T12 construct: purchased Eurofins DiscoverX (KINOMEscan service)

STK16 = target: T13, STK16 (Homo sapiens, UniProt O75716); experiment: KINOMEscan; assay type: binding; details: 1 μM of compound 4; read-out: POC
T13 construct: purchased Eurofins DiscoverX (KINOMEscan service)
T13 sequence (O75716 whole entry): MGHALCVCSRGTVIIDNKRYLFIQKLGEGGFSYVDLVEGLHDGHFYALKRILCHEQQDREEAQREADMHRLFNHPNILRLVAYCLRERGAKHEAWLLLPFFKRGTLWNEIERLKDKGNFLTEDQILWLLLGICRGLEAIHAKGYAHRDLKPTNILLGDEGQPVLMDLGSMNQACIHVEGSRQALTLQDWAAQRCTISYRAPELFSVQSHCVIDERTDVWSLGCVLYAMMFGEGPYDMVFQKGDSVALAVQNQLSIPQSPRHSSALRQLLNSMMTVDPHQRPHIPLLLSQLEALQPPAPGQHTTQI

STK33 = target: T14, STK33 (Homo sapiens, UniProt Q9BYT3); experiment: KINOMEscan; assay type: binding; details: 1 μM of compound 4; read-out: POC
T14 construct: purchased Eurofins DiscoverX (KINOMEscan service)

STK35 = target: T15, STK35 (Homo sapiens, UniProt Q8TDR2); experiment: KINOMEscan; assay type: binding; details: 1 μM of compound 4; read-out: POC
T15 construct: purchased Eurofins DiscoverX (KINOMEscan service)
T15 sequence (Q8TDR2 whole entry): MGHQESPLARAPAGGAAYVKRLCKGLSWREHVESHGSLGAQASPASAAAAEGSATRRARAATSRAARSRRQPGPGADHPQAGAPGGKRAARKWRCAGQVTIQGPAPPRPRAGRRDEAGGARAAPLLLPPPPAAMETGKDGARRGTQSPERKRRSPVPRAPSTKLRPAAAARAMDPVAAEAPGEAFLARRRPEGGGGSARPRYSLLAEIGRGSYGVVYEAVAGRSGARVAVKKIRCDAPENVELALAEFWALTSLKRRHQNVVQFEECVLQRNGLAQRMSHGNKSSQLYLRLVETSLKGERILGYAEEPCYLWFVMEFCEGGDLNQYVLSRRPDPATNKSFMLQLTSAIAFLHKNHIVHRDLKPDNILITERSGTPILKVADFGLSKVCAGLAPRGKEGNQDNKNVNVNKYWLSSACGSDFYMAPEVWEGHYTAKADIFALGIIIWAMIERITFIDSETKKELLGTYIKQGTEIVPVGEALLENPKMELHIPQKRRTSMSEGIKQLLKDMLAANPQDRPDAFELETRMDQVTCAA

TGFBR2 = target: T16, TGFBR2 (Homo sapiens, UniProt P37173); experiment: KINOMEscan; assay type: binding; details: 1 μM of compound 4; read-out: POC
T16 construct: purchased Eurofins DiscoverX Corporation

T1 sequence (P00533 669-1210): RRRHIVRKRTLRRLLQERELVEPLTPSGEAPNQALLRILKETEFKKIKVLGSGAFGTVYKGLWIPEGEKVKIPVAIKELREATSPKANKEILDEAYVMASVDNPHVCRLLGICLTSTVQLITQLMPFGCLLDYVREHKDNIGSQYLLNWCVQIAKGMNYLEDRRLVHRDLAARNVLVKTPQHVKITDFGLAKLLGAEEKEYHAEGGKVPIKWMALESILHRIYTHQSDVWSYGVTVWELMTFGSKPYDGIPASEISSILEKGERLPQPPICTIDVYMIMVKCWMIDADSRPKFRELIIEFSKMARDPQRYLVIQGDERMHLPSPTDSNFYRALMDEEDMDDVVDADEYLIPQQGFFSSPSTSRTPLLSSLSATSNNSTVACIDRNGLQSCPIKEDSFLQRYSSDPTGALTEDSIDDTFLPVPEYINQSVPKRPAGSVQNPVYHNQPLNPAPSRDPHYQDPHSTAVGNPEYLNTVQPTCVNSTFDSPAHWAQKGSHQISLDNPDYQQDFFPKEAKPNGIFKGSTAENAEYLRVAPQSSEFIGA

Structure (SMILES): C=CC(=O)Nc1ccc(OC)c(Nc2cc(-c3[nH]c(CC)nc3-c3cccc(NC(=O)c4cccc5c4NC(=O)c4ccccc4N5)c3)ccn2)c1 [Compound 4, N-(3-(5-(2-((5-Acrylamido-2-methoxyphenyl)amino)pyridin-4-yl)-2-ethyl-1H-imidazol-4-yl)phenyl)-11-oxo-10,11-dihydro-5H-dibenzo[b,e][1,4]diazepine-9-carboxamide]
- Ki (EGFR WT): 1200 ± 40 nM
- kinact (EGFR WT): 0.003 s⁻¹
- kinact/KI (EGFR WT): 2500 ± 10 M⁻¹ s⁻¹
- Ki (EGFR [T790M/L858R]; read-out: KI, LRTM): 1600 ± 100 nM
- kinact (EGFR [T790M/L858R]; read-out: kinact, LRTM (converted)): 0.00167 s⁻¹
- kinact/KI (EGFR [T790M/L858R]; read-out: kinact/KI, LRTM): 1070 ± 40 M⁻¹ s⁻¹
- remaining binding at 1 µM (ACVRL1): 75%
- remaining binding at 1 µM (BUB1): 100%
- remaining binding at 1 µM (CDK5): 100%
- remaining binding at 1 µM (CLK4): 100%
- remaining binding at 1 µM (CSNK2A1): 100%
- remaining binding at 1 µM (DMPK): 45%
- remaining binding at 1 µM [1]: 16%
- remaining binding at 1 µM (EPHA8): 98%
- remaining binding at 1 µM (ERBB3): 84%
- remaining binding at 1 µM (ERK3): 100%
- remaining binding at 1 µM (GRK3): 100%
- remaining binding at 1 µM (KIT(D816H)): 39%
- remaining binding at 1 µM (MINK): 10%
- remaining binding at 1 µM (NEK6): 100%
- remaining binding at 1 µM (PAK3): 70%
- remaining binding at 1 µM (PIK3CA(H1047Y)): 66%
- remaining binding at 1 µM (PKAC-alpha): 100%
- remaining binding at 1 µM (PKNB(M. tuberculosis)): 97%
- remaining binding at 1 µM (PRKD1): 42%
- remaining binding at 1 µM (RET): 99%
- remaining binding at 1 µM (RIOK2): 83%
- remaining binding at 1 µM [2]: 97%
- remaining binding at 1 µM (SNRK): 82%
- remaining binding at 1 µM (STK16): 100%
- remaining binding at 1 µM (STK33): 100%
- remaining binding at 1 µM (STK35): 69%
- remaining binding at 1 µM (TGFBR2): 75%

— patent US20260224588A1, “BENZODIAZEPINONE-DERIVED INHIBITORS OF EGFR AND HER2” (The Research Foundation for the State University of New York, priority 2023, published 2026)
